The source of these data is BindingDB's records for patent US10117944 (Madrigal Pharmaceuticals, 2018).

Broadly, the pIC50 is the negative decadic logarithm of the IC50, by convention in mol/L. A low value points to a large IC50.

Structures are written as SMILES. pIC50: −log10 of the molar value.

For the test, the target named is Receptor tyrosine-protein kinase erbB-2 (Homo sapiens, UniProt P04626). The experiment in a line: HER2 Degradation Assay with BT-474 Cell Line. From the text: HER2 has emerged as a key target for anticancer drugs due to its intrinsic involvement in the phosphatidylinositol-3-kinase-Akt/protein kinase B (PI3 K-Akt) and the mitogen-activated protein kinase (MAPK) pathways, both of which suppress apoptosis and promote tumor cell survival, gene transcription, angiogenesis, cellular proliferation, migration, mitosis, and differentiation. The degradation of HER2 is a measure of efficacy of anticancer therapeutics that target Hsp90. Accordingly, the SDC-TRAP molecules of the invention that comprise a binding moiety that binds Hsp90 were tested in the following HER2 degradation assay.BT-474 cells (human breast cancer cell line ATCC HTB-20) were obtained from ATCC and seeded into 12-well tissue culture plates at 0.2x106/1.8 mL/well. […] Each test compound was titrated in 4-fold dilutions from 5 μM to 78 nM with DMSO and 200 μL of the titration was added to each well of the cell plate. The DMSO final concentration was 0.2%. Cells were incubated overnight at 37° C. in 5% CO2.Media was decanted from the plate, cells were washed 1x in PBS. 400 μL trypsin (EDTA) per well was added, and the cells were incubated for 2 to 3 minutes. […] The cytometer readout was normalized and the potency of each compound was evaluated with IC50 calculated with XLfit software.
Sequence of Receptor tyrosine-protein kinase erbB-2 (P04626 whole entry): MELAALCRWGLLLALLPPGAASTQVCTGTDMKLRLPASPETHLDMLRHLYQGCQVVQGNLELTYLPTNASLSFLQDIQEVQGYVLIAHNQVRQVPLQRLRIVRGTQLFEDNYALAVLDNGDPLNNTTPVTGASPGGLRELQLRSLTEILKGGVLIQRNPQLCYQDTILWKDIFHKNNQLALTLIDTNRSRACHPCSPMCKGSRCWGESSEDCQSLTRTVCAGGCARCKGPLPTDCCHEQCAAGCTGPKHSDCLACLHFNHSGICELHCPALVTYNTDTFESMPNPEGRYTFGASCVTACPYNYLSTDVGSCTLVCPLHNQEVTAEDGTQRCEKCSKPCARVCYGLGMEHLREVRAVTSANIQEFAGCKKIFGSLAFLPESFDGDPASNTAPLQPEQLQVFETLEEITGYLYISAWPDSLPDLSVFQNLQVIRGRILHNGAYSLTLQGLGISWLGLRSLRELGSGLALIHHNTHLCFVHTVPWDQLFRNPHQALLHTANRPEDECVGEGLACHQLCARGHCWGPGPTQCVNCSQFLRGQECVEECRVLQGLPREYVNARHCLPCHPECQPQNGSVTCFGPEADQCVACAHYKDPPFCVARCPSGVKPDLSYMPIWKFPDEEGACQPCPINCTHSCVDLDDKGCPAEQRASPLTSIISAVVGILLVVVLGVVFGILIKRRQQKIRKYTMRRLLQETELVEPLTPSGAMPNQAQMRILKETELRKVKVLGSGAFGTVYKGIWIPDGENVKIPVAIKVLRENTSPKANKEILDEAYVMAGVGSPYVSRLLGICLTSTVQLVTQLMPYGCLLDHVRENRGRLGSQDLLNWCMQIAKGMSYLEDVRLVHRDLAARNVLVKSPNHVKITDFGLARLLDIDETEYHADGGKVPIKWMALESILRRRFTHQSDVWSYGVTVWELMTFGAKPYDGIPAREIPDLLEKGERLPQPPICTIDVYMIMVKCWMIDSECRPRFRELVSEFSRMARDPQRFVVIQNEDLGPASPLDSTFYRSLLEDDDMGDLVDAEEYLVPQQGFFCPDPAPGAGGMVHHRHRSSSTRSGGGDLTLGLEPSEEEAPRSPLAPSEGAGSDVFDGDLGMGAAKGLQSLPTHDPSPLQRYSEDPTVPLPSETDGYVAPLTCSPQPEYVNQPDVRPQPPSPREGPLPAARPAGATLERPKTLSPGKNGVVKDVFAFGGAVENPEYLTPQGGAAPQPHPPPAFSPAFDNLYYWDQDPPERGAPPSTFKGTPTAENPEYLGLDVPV

In turn, `CC(C)C[C@H](NC(=O)[C@H](Cc1ccccc1)NC(=O)c1cnccn1)B1O[C@H]2C[C@H]3C[C@H](C3(C)C)[C@@]2(CC(=O)N2CCC(CCn3ccc4cc(N(C(=N)c5cc(C(C)C)c(O)cc5O)C(N)=O)ccc43)CC2)O1` [US10117944, Compound SDC-TRAP-0245] showed a negative logarithm of the IC50 (pIC50) of 6.93.
